Test results taken from PubChem BioAssay AID743022 (Sanford-Burnham Center for Chemical Genomics, 2013).
Several values for one entry are separate records, joined by “and”; a condition that tells them apart may be missing. Equal entries are not always repeated. Activity calls are given as the source filed them.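 How the source made its calls: active means compounds whose mean IC50 for blocking the worm GFP/RFP stress reporter is 5 µM or lower; inactive means the rest.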

System: C. elegans VP596 gst-4::GFP/RFP ratio, acrylamide-induced, 24 h
Assay: C. elegans gst-4 reporter suppression, analog potency – whole organism, GFP/RFP fluorescence ratio, round 3, SKN-1 inhibitor project, SAR follow-up (AID 743022)

| SMILES | IC50 |
| --- | --- |
| c1ccc(-c2nc(-c3cccnc3)cs2)cc1 | > 64 µM (inactive) |
| c1ccc(-c2csc(-c3ccccn3)n2)cc1 | 29 µM (inactive) |
| COc1ccc(-c2csc(-c3ccccc3)n2)cc1 | 28.8 µM (inactive) |
| Cc1ccc(-c2csc(C3CCNCC3)n2)cc1 | > 64 µM (inactive) |
| Cc1ccc(-c2csc(-c3ccccc3)n2)cc1 | > 64 µM (inactive) |
| c1ccc(-c2csc(-c3cccnc3)n2)cc1 | 17.7 µM (inactive) |
| Fc1ccc(-c2csc(-c3ccccc3)n2)cc1 | 23.3 µM (inactive) |
| CCCc1cc(-c2nc(-c3ccc(NS(C)(=O)=O)cc3)cs2)ccn1 | > 64 µM (inactive) |
| Fc1ccc(-c2csc(-c3ccccn3)n2)cc1 | 3.18 µM |
| CC(C)(C)c1csc(-c2ccncc2)n1 | > 64 µM (inactive) |
| COc1ccc(-c2csc(C3CCNCC3)n2)cc1 | > 64 µM (inactive) |
| c1ccc(-c2csc(C3CCNCC3)n2)cc1 | > 64 µM (inactive) |
| Fc1ccc(-c2csc(C3CCNCC3)n2)cc1 | > 64 µM (inactive) |
| Clc1ccc(-c2csc(C3CCNCC3)n2)cc1 | > 64 µM (inactive) |
| COc1ccc(-c2csc(-c3ccccn3)n2)cc1 | 17.9 µM (inactive) |
| c1cc(-c2nc(C3CC3)cs2)ccn1 | > 64 µM (inactive) |
| Cc1sc(-c2ccncc2)nc1-c1ccccc1 | 11.3 µM (inactive) |
| Cc1ccc(-c2csc(-c3ccccn3)n2)cc1 | 27.4 µM (inactive) |
| Cc1sc(C2CCNCC2)nc1-c1ccccc1 | > 64 µM (inactive) |
| COc1ccc(-c2nc(-c3ccncc3)sc2C)cc1 | 51.2 µM (inactive) |

More lines, now with the values ahead:

| IC50 | SMILES |
| --- | --- |
| 3.63 µM | Clc1ccccc1-c1csc(-c2ccncc2)n1 |
| > 64 µM (inactive) | COc1ccccc1-c1csc(-c2ccncc2)n1 |
| 30.1 µM (inactive) | Cc1cccc(-c2csc(-c3ccncc3)n2)c1 |
| > 64 µM (inactive) | Cc1csc(-c2ccncc2)n1 |
| 0.276 µM and 0.884 µM | Clc1ccc(-c2csc(-c3ccncc3)n2)cc1Cl |
| 2.5 µM | c1ccc(-c2csc(-c3ccncc3)n2)cc1 |
| 1.49 µM | Clc1cccc(-c2csc(-c3ccncc3)n2)c1 |
| 1.67 µM and 0.379 µM | Clc1ccc(-c2csc(-c3cccnc3)n2)cc1 |
| 2.53 µM | Fc1ccc(-c2csc(-c3ccncc3)n2)cc1 |
| 3.24 µM | Cc1sc(-c2ccncc2)nc1-c1ccc(Cl)cc1 |
| 16.6 µM (inactive) | COc1ccc(-c2csc(-c3ccncc3)n2)cc1 |
| 18.2 µM (inactive) | Cc1ccc(-c2csc(-c3ccncc3)n2)cc1 |
| 21.5 µM (inactive) | c1cc(-c2nc(-c3nccs3)cs2)ccn1 |
| 26.2 µM (inactive) | COc1cccc(-c2csc(-c3ccncc3)n2)c1 |
| 3.9 µM | FC(F)(F)c1ccc(-c2csc(-c3ccncc3)n2)cc1 |
| 1.1 µM | Clc1ccc(-c2csc(-c3ccncc3)n2)c(Cl)c1 |
| > 64 µM (inactive) | Cc1ccc(-c2csc(-c3cccnc3)n2)cc1 |
| 1.34 µM and 1.92 µM | Clc1ccc(-c2csc(-c3ccncc3)n2)cc1 |
| > 64 µM (inactive) | COC(=O)c1ccc(-c2csc(-c3ccncc3)n2)cc1 |
| 4.77 µM | Cc1sc(-c2ccncc2)nc1-c1ccc(F)cc1 |
| 34.1 µM (inactive) | CCCc1cc(-c2nc(-c3ccc(C)cc3)cs2)ccn1 |
| 6.94 µM (inactive) | Fc1ccc(-c2csc(-c3cccnc3)n2)cc1 |
| 13.5 µM (inactive) | N#Cc1ccc(-c2csc(-c3ccncc3)n2)cc1 |
| 1.59 µM and 0.869 µM | Clc1ccc(-c2csc(-c3ccccn3)n2)cc1 |
| 13.4 µM (inactive) | COc1ccc(-c2csc(-c3cccnc3)n2)cc1 |
| > 64 µM (inactive) | Cc1ccc(-c2nc(-c3ccncc3)sc2C)cc1 |
| 2.1 µM | Clc1ccc(-c2csc(-c3ccccc3)n2)cc1 |
| 14.6 µM (inactive) | Cc1ccccc1-c1csc(-c2ccncc2)n1 |
